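Following 48 hours of exposure in 96-well plates, responses at five concentrations were used to interpolate endpoints linearly. GI50 marks 50% less growth.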 Active and inactive are the calls of the source. Rule as the data show it: active = GI50 up to about 1.1 µM and inactive = higher.
What was measured:
Assay in all cases: NCI anticancer screen, dose series, 48 h
786-0 = system: 786-0
A498 = system: A498
A549 = system: A549
ACHN = system: ACHN
CAKI-1 = system: CAKI-1
CCRF-CEM = system: CCRF-CEM
COLO 205 = system: COLO 205
DLD-1 = system: DLD-1
DMS-114 = system: DMS-114
DMS-273 = system: DMS-273
DU-145 = system: DU-145
EKVX = system: EKVX
HCC 2998 = system: HCC 2998
HCT-116 = system: HCT-116
HCT-15 = system: HCT-15
HOP-62 = system: HOP-62
HOP-92 = system: HOP-92
HT-29 = system: HT-29
Hs-578T = system: Hs-578T
IGROV-1 = system: IGROV-1
K562 = system: K562
KM-20L2 = system: KM-20L2
KM12 = system: KM12
LOX IMVI = system: LOX IMVI
LXFL 529 = system: LXFL 529
M14 = system: M14
MCF7 = system: MCF7
MDA-MB-231 = system: MDA-MB-231
MDA-MB-435 = system: MDA-MB-435
MDA-N = system: MDA-N
MOLT-4 = system: MOLT-4
Malme-3M = system: Malme-3M
NCI-H226 = system: NCI-H226
NCI-H23 = system: NCI-H23
NCI-H460 = system: NCI-H460
NCI/ADR-RES = system: NCI/ADR-RES
OVCAR-3 = system: OVCAR-3
OVCAR-4 = system: OVCAR-4
OVCAR-5 = system: OVCAR-5
OVCAR-8 = system: OVCAR-8
PC-3 = system: PC-3
RPMI-8226 = system: RPMI-8226
RXF 393 = system: RXF 393
SF-268 = system: SF-268
SF-295 = system: SF-295
SK-MEL-28 = system: SK-MEL-28
SK-MEL-2 = system: SK-MEL-2
SN12C = system: SN12C
SNB-19 = system: SNB-19
SNB-75 = system: SNB-75
SR = system: SR
SW-620 = system: SW-620
T47D = system: T47D
TK-10 = system: TK-10
U-251 = system: U-251
UACC-257 = system: UACC-257
UACC-62 = system: UACC-62
UO-31 = system: UO-31
XF498 = system: XF498

Cc1cc(NC(=O)NC(=O)c2ccccc2NC(=O)CN)ccc1Oc1ncc(Br)cn1
GI50 (786-0): 502 nM (active) | GI50 (A498): 454 nM (active) | GI50 (A549): 879 nM (active) | GI50 (ACHN): 9440 nM (inactive) | GI50 (CAKI-1): 62.7 nM (active) | GI50 (CCRF-CEM): 403 nM (active) | GI50 (COLO 205): 249 nM (active) | GI50 (DLD-1): 1400 nM (inactive) | GI50 (DMS-114): 191 nM (active) | GI50 (DMS-273): 313 nM (active) | GI50 (DU-145): 402 nM (active) | GI50 (EKVX): 1520 nM (inactive) | GI50 (HCC 2998): 5210 nM (inactive) | GI50 (HCT-116): 330 nM (active) | GI50 (HCT-15): 1410 nM | GI50 (HOP-62): 215 nM (active) | GI50 (HOP-92): 3600 nM (inactive) | GI50 (HT-29): 299 nM (active) | GI50 (Hs-578T): 30.8 nM (active) | GI50 (IGROV-1): 847 nM (active) | GI50 (K562): 419 nM (active) | GI50 (KM-20L2): 676 nM (active) | GI50 (KM12): 401 nM (active) | GI50 (LOX IMVI): 971 nM (active) | GI50 (LXFL 529): 1730 nM (inactive) | GI50 (M14): 592 nM (active) | GI50 (MCF7): 259 nM (active) | GI50 (MDA-MB-231): 297 nM (active) | GI50 (MDA-MB-435): 145 nM (active) | GI50 (MDA-N): 105 nM (active) | GI50 (MOLT-4): 2500 nM (inactive) | GI50 (Malme-3M): 63.2 nM (active) | GI50 (NCI-H226): 1180 nM (inactive) | GI50 (NCI-H23): 740 nM (active) | GI50 (NCI-H460): 743 nM (active) | GI50 (NCI/ADR-RES): 130 nM (active) | GI50 (OVCAR-3): 217 nM (active) | GI50 (OVCAR-4): 20000 nM (inactive) | GI50 (OVCAR-5): 12300 nM (inactive) | GI50 (OVCAR-8): 1170 nM (inactive) | GI50 (PC-3): 217 nM (active) | GI50 (RPMI-8226): 1570 nM (inactive) | GI50 (RXF 393): 43.9 nM (active) | GI50 (SF-268): 1550 nM (inactive) | GI50 (SF-295): 66.1 nM (active) | GI50 (SK-MEL-28): 859 nM (active) | GI50 (SK-MEL-2): 437 nM (active) | GI50 (SN12C): 1160 nM (inactive) | GI50 (SNB-19): 929 nM (active) | GI50 (SNB-75): 139 nM (active) | GI50 (SR): 1060 nM (active) | GI50 (SW-620): 618 nM (active) | GI50 (T47D): 12300 nM (inactive) | GI50 (TK-10): 9620 nM (inactive) | GI50 (U-251): 743 nM (active) | GI50 (UACC-257): 3520 nM (inactive) | GI50 (UACC-62): 207 nM (active) | GI50 (UO-31): 246 nM (active) | GI50 (XF498): 13900 nM (inactive)
